The record followed here is US10407467B2, “Polymyxin derivatives and their use in combination therapy together with different antibiotics” (priority 2013, dated 2019).

For series [1], the system named is Acinetobacter baumannii. The series can be described thus: MIC, compound in combination with a second agent (broth microdilution). Format: cell-based. To be noted: 1:1 (wt:wt) combination with Rifampicin, MIC = total drug concentration; for MIC A. baumannii ATCC BAA-747: strain ATCC BAA-747; for MIC A. baumannii CCUG57249: strain CCUG57249; for MIC A. baumannii NCTC 13423: strain NCTC 13423. An outline of the steps: (§1)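 Compound and second agent (e.g. rifampicin) were combined 1:1 w/w, compound weighed as its TFA or sulphate salt. Inoculum was a direct colony suspension from 18-24 hour Mueller-Hinton agar at 0.5 McFarland. MIC is the total drug concentration; lower of duplicates reported, modal value when tested repeatedly.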
(In broth dilution the organism is exposed to a series of concentrations in liquid medium.)

The test system of series [2] is Escherichia coli. The series is described as above. Format: cell-based. To be noted: 1:1 (wt:wt) combination with Rifampicin, MIC = total drug concentration; for MIC E. coli ATCC25922: strain ATCC25922; for MIC E. coli NCTC9001: strain NCTC9001. An outline of the steps:
as §1

Series [3] has as its system Klebsiella pneumoniae. The series is described as above. The series is classed as cell-based. To be noted: 1:1 (wt:wt) combination with Rifampicin, MIC = total drug concentration; for MIC K. pneumoniae ATCC 4352: strain ATCC 4352; for MIC K. pneumoniae ATCC-BAA-2146: strain ATCC-BAA-2146; for MIC K. pneumoniae CCUG-59348: strain CCUG-59348. An outline of the steps:
as §1

For series [4], the system named is Pseudomonas aeruginosa. Described as above. The series is classed as cell-based. As to conditions: 1:1 (wt:wt) combination with Rifampicin, MIC = total drug concentration; for MIC P. aeruginosa ATCC 27853: strain ATCC 27853; for MIC P. aeruginosa ATCC-47: strain ATCC-47; for MIC P. aeruginosa CCUG 59626: strain CCUG 59626. The method in brief:
as §1

Series [5] relates to HK-2 cell line. The series can be described thus: In vitro renal cell toxicity assay (resazurin reduction). The series is classed as cell-based, human. A general note: Resazurin is reduced to fluorescent resorufin, in cell work by metabolically active cells.
In series [6] the test system is Escherichia coli. The series can be described thus: MIC, sole activity (no second agent). The series is classed as cell-based. To be noted: in the absence of Rifampicin; strain ATCC25922. The method in brief: (§2)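 Inoculum: direct colony suspension (18-24 h MH agar), 0.5 McFarland. Medium: cation-adjusted MHB. Up to 4 strains/species; reported relative to Polymyxin B.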

Series [7] relates to Klebsiella pneumoniae. In words: MIC, sole activity (no second agent). As to conditions: in the absence of Rifampicin; strain ATCC 4352. The series is classed as cell-based. An outline of the steps:
as §2

Series [8] relates to Pseudomonas aeruginosa. The series can be described thus: MIC, sole activity (no second agent). Format: cell-based. As to conditions: in the absence of Rifampicin; strain ATCC27853. The method in brief:
as §2

Series [9] relates to P. aeruginosa ATCC 27853. As to conditions: ATCC 27853, in vivo.

Structures can show the parent of a compound that is named as a salt. Where two headings read alike, the source gives them in different places. Numbered stars: 1 amine (or outer) side, 2 acyl side, 3 side chain; on linkers, the order of the positions; unused ones are H or OH. Bridge positions count the residues as written; N and C are the ends. Square brackets hold non-standard residues; d marks the D form. Peptide text beside a SMILES is read from it. * marks the point of attachment. ξ: configuration not given here. NHCH2(1,3-C6H4)CH2CO = O=C(Cc1cccc(CN[*:1])c1)[*:2]; ξHexahydromandeloyl = O=C(C(O)C1CCCCC1)*; X22 = O=C(C[C@@H]1Cc2ccccc2CN1)*; Thr(3ξ) = CC(O)[C@H](N)C(=O)O; NH(2-ClPh) = Clc1ccccc1N*; Dab = NCC[C@H](N)C(=O)O; X3 = O=C([C@H]1CCCNC1)*; Dap = NC[C@H](N)C(=O)O; CO = O=C([*:1])[*:2]; Ahp = NCCCCCCC(=O)O

In the case of `CC(C)C[C@@H]1NC(=O)[C@@H](Cc2ccccc2)NC(=O)[C@H](CCN)NC(=O)[C@@H](NC(=O)[C@H](CCN)NC(=O)[C@@H](NC(=O)[C@H](CCN)NC(=O)Nc2ccccc2Cl)C(C)O)CCNC(=O)[C@H](C(C)O)NC(=O)[C@H](CCN)NC(=O)[C@H](CCN)NC1=O` (some centres unmarked) [Example C2, CB-182, 804 sulphate salt, reference compound] ({NH(2-ClPh)-CO}-[Dab][Thr(3ξ)][Dab][Dab][Dab][dF]L[Dab][Dab][Thr(3ξ)]; lactam 4-C), in series [1], the “MIC A. baumannii ATCC BAA-747” value came out at 0.25 micrograms/mL, the “MIC A. baumannii CCUG57249” value was found to be 0.5 micrograms/mL and the “MIC A. baumannii NCTC 13423” value is 0.25 micrograms/mL. Further, in [2], the “MIC E. coli ATCC25922” value came to 0.125 micrograms/mL and the “MIC E. coli NCTC9001” value was 0.25 micrograms/mL. Further, in [3], the “MIC K. pneumoniae ATCC 4352” value turned out to be 0.25 micrograms/mL, the “MIC K. pneumoniae ATCC-BAA-2146” value turned out to be 0.5 micrograms/mL and the “MIC K. pneumoniae CCUG-59348” value was 2 micrograms/mL. In series [4], the “MIC P. aeruginosa ATCC 27853” value amounted to 0.5 micrograms/mL, the “MIC P. aeruginosa ATCC-47” value was 0.25 micrograms/mL and the “MIC P. aeruginosa CCUG 59626” value came to 0.125 micrograms/mL. In addition, the “MIC P. aeruginosa ATCC CRM-9027” value in series [4] (strain ATCC CRM-9027) came to 0.5 micrograms/mL. Besides, in [5] (HK-2 cells, 24 h, resazurin reduction, mean values of up to 6 independent studies), the “IC50 HK-2 cells” value was found to be 22 µg/mL.
Take `CC(C)C[C@@H]1NC(=O)[C@@H](Cc2ccccc2)NC(=O)[C@H](CCN)NC(=O)[C@@H](NC(=O)[C@H](CN)NC(=O)[C@@H](NC(=O)[C@H](CCN)NC(=O)[C@H]2CCCNC2)C(C)O)CCNC(=O)[C@H](C(C)O)NC(=O)[C@H](CCN)NC(=O)[C@H](CCN)NC1=O` (stereo partly drawn) [Example A13, [(3S)-piperidine-3-carbonyl]-L-Dab-L-Thr-L-Dap polymyxin B heptapeptide] (X3-[Dab][Thr(3ξ)][Dap][Dab][Dab][dF]L[Dab][Dab][Thr(3ξ)]; lactam 4-C): in [5], the “HK-2 IC50 rel to PMB” value is 10.
As for `CC(C)C[C@@H]1NC(=O)[C@@H](Cc2ccccc2)NC(=O)[C@H](CCN)NC(=O)[C@@H](NC(=O)[C@H](CCN)NC(=O)[C@@H](NC(=O)CCCCCCN)C(C)O)CCNC(=O)[C@H](C(C)O)NC(=O)[C@H](CCN)NC(=O)[C@H](CCN)NC1=O` (some centres unmarked) [Example 13, 7-Aminoheptanoyl polymyxin B nonapeptide] (H-[Ahp][Thr(3ξ)][Dab][Dab][Dab][dF]L[Dab][Dab][Thr(3ξ)]; lactam 4-C), in series [1], the “MIC A. baumannii ATCC BAA-747” value is recorded as not above 0.06 micrograms/mL, the “MIC A. baumannii CCUG57249” value was 0.125 micrograms/mL and the “MIC A. baumannii NCTC 13423” value is recorded as not above 0.06 micrograms/mL. Further, in [1] (strain NCTC 13424), the “MIC A. baumannii NCTC 13424” value was determined as 0.125 micrograms/mL. Besides, in [2], the “MIC E. coli ATCC25922” value turned out to be 0.125 micrograms/mL and the “MIC E. coli NCTC9001” value is reported as 0.5 micrograms/mL. Further, in series [3], the “MIC K. pneumoniae ATCC 4352” value is 0.125 micrograms/mL, the “MIC K. pneumoniae ATCC-BAA-2146” value is on record as 0.5 micrograms/mL and the “MIC K. pneumoniae CCUG-59348” value was found to be 4 micrograms/mL. The “MIC K. pneumoniae NCTC 13438” value in [3] (strain NCTC 13438) amounted to 1 micrograms/mL. Also, in series [4], the “MIC P. aeruginosa ATCC 27853” value is recorded as 0.25 micrograms/mL, the “MIC P. aeruginosa ATCC-47” value is on record as 0.25 micrograms/mL and the “MIC P. aeruginosa CCUG 59626” value is recorded as 0.125 micrograms/mL. Moreover, in series [6], the “MIC E. coli ATCC25922” value worked out at 1 micrograms/mL. Besides, in [7], the “MIC K. pneumoniae ATCC 4352” value is 2 micrograms/mL. For the same compound, the “MIC P. aeruginosa ATCC 27853” value in series [8] turned out to be 0.25 micrograms/mL. Further, in series [5], the “HK-2 relative to PMB” value is reported as 14 and the “HK-2 toxicity (IC50) compared with PMB” value is “significantly increased recorded IC50 values”.
Turning to `CC(C)C[C@@H]1NC(=O)[C@@H](Cc2ccccc2)NC(=O)[C@H](CCN)NC(=O)[C@@H](NC(=O)[C@H](CCN)NC(=O)[C@@H](NC(=O)[C@H](CCN)NC(=O)[C@H]2CCCNC2)C(C)O)CCNC(=O)[C@H](C(C)O)NC(=O)[C@H](CCN)NC(=O)[C@H](CCN)NC1=O` (stereo partly drawn) [Example A22, (S)-Piperidine-3-carbonyl polymyxin B decapeptide] (X3-[Dab][Thr(3ξ)][Dab][Dab][Dab][dF]L[Dab][Dab][Thr(3ξ)]; lactam 4-C), the “HK-2 IC50 rel to PMB” value in series [5] worked out at 7.4.
`CC(C)C[C@@H]1NC(=O)[C@@H](Cc2ccccc2)NC(=O)[C@H](CCN)NC(=O)[C@@H](NC(=O)[C@H](CCN)NC(=O)[C@@H](NC(=O)C[C@@H]2Cc3ccccc3CN2)C(C)O)CCNC(=O)[C@H](C(C)O)NC(=O)[C@H](CCN)NC(=O)[C@H](CCN)NC1=O` (stereo partly drawn) [Example A14, (S)-2-((1,2,3,4)-tetrahydroisoquinolin-3-yl) ethanoyl polymyxin B nonapeptide] (X22-[Thr(3ξ)][Dab][Dab][Dab][dF]L[Dab][Dab][Thr(3ξ)]; lactam 3-C): in [5], the “HK-2 IC50 rel to PMB” value amounted to 5.3.
Take `CC(C)C[C@@H]1NC(=O)[C@@H](Cc2ccccc2)NC(=O)[C@H](CCN)NC(=O)[C@@H](NC(=O)[C@H](CCN)NC(=O)[C@@H](NC(=O)[C@H](CCN)NC(=O)C(O)C2CCCCC2)C(C)O)CCNC(=O)[C@H](C(C)O)NC(=O)[C@H](CCN)NC(=O)[C@H](CCN)NC1=O` (stereo partly drawn) [Example A3, 2-(RS)-(2-Hydroxy-2-cyclohexyl)ethanoyl polymyxin B decapeptide] (ξHexahydromandeloyl-[Dab][Thr(3ξ)][Dab][Dab][Dab][dF]L[Dab][Dab][Thr(3ξ)]; lactam 4-C): the “HK-2 IC50 rel to PMB” value in [5] was determined as 4. For the same compound, the “Log reduction from vehicle (CFU/g)” value in series [9] (iv, 2 mg/kg, 9 h) is 0.12 log CFU/g; in [9] (iv, 4 mg/kg, 9 h), 3.34 log CFU/g.
In the case of `CCCCCC(N)CC(=O)N[C@H](C(=O)N[C@@H](CCN)C(=O)N[C@H]1CCNC(=O)[C@H](C(C)O)NC(=O)[C@H](CCN)NC(=O)[C@H](CCN)NC(=O)[C@H](CC(C)C)NC(=O)[C@@H](Cc2ccccc2)NC(=O)[C@H](CCN)NC1=O)C(C)O` (single isomer, unassigned; isomer 2) [Example A33, 3-(RS)-3-amino octanoyl polymyxin B nonapeptide. Isomer 2], in series [5], the “HK-2 IC50 rel to PMB” value was found to be 9.7, the “HK-2 relative to PMB” value is listed as 9.7 and the “HK-2 toxicity (IC50) compared with PMB” value is “significantly increased recorded IC50 values”. Besides, the “Log reduction from vehicle (CFU/g)” value in series [9] (3.4 mg/kg, 24 h) was 3.54 log CFU/g.
Take “Octanoyl polymyxin B nonapeptide, sulfate salt [Example C6, reference compound]”: in [5], the “HK-2 relative to PMB” value worked out at 3.3 and the “HK-2 toxicity (IC50) compared with PMB” value was “reduced toxicity against HK-2 compared with PMB”.
Consider `CC(C)C[C@@H]1NC(=O)[C@@H](Cc2ccccc2)NC(=O)[C@H](CCN)NC(=O)[C@@H](NC(=O)[C@H](CCN)NC(=O)[C@@H](NC(=O)Cc2cccc(CN)c2)C(C)O)CCNC(=O)[C@H](C(C)O)NC(=O)[C@H](CCN)NC(=O)[C@H](CCN)NC1=O` (some centres unmarked) [Example A1, 2-(3-(Aminomethyl)phenyl) ethanoyl polymyxin B nonapeptide] ({NHCH2(1,3-C6H4)CH2CO}-[Thr(3ξ)][Dab][Dab][Dab][dF]L[Dab][Dab][Thr(3ξ)]; lactam 3-C), for which the “HK-2 IC50 rel to PMB” value in [5] amounted to 8.
